Assay [1] has as its system Tyrosine-protein kinase ABL1 (Homo sapiens), P00519 [M351T]. The assay is described as follows: Inhibition of phosphorylated ABL1 M351T mutant (unknown origin) assessed as residual activity at 1000 nM by KINOMEscan analysis relative to control.
The target of assay [2] is T1, Mitogen-activated protein kinase kinase kinase 6 (Homo sapiens) (UniProt O95382).
T1 sequence (whole entry): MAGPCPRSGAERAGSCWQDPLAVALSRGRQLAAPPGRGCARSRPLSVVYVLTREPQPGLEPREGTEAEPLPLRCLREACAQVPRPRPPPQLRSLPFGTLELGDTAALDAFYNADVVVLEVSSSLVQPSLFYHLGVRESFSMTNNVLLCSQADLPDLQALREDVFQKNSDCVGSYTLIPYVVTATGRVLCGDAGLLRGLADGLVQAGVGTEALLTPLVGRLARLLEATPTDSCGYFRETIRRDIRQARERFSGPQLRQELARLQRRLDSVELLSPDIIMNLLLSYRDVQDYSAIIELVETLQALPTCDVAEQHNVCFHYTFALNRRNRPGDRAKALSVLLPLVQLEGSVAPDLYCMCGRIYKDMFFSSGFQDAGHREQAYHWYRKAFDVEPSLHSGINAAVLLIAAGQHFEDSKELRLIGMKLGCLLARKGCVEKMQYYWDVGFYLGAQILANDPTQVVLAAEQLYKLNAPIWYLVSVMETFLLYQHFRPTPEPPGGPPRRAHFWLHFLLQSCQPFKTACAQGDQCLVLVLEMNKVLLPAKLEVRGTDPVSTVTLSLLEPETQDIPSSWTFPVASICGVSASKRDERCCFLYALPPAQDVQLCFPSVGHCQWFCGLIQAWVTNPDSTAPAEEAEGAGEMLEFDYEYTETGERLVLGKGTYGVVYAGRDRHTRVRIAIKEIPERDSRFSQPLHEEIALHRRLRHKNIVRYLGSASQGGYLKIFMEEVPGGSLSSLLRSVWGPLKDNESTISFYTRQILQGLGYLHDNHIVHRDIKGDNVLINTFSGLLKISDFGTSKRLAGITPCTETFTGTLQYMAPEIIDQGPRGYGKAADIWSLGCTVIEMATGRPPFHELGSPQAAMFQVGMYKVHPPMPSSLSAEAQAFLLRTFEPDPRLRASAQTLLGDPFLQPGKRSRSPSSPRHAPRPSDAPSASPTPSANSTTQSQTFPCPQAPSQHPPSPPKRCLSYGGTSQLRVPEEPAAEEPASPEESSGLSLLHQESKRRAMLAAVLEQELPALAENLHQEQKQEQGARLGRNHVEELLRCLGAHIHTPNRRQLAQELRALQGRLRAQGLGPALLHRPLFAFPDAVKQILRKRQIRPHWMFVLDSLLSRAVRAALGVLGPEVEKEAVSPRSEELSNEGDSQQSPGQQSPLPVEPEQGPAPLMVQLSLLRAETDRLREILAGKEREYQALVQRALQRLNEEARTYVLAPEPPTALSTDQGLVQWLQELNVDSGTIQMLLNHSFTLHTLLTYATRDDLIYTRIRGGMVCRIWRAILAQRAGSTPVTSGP
The assay is described as follows: Inhibition of ASK2 (unknown origin) assessed as residual activity at 1000 nM by KINOMEscan analysis relative to control.

Assay [3] concerns the target Tyrosine-protein kinase FRK (Homo sapiens) (UniProt P42685). The assay is described as follows: Inhibition of FRK (unknown origin) assessed as residual activity at 1000 nM by KINOMEscan analysis relative to control.
In assay [4] the target is Serine/threonine-protein kinase 24 (Homo sapiens) (UniProt Q9Y6E0). The assay is described as follows: Inhibition of MST3 (unknown origin) assessed as residual activity at 1000 nM by KINOMEscan analysis relative to control.
Assay [5] is filed under the species Homo sapiens. The experiment in a line: Inhibition of PIP5K1C (unknown origin) assessed as residual activity at 1000 nM by KINOMEscan analysis relative to control.
For assay [6], the target named is T2, Serine/threonine-protein kinase 36 (Homo sapiens) (UniProt Q9NRP7).
T2 sequence (whole entry): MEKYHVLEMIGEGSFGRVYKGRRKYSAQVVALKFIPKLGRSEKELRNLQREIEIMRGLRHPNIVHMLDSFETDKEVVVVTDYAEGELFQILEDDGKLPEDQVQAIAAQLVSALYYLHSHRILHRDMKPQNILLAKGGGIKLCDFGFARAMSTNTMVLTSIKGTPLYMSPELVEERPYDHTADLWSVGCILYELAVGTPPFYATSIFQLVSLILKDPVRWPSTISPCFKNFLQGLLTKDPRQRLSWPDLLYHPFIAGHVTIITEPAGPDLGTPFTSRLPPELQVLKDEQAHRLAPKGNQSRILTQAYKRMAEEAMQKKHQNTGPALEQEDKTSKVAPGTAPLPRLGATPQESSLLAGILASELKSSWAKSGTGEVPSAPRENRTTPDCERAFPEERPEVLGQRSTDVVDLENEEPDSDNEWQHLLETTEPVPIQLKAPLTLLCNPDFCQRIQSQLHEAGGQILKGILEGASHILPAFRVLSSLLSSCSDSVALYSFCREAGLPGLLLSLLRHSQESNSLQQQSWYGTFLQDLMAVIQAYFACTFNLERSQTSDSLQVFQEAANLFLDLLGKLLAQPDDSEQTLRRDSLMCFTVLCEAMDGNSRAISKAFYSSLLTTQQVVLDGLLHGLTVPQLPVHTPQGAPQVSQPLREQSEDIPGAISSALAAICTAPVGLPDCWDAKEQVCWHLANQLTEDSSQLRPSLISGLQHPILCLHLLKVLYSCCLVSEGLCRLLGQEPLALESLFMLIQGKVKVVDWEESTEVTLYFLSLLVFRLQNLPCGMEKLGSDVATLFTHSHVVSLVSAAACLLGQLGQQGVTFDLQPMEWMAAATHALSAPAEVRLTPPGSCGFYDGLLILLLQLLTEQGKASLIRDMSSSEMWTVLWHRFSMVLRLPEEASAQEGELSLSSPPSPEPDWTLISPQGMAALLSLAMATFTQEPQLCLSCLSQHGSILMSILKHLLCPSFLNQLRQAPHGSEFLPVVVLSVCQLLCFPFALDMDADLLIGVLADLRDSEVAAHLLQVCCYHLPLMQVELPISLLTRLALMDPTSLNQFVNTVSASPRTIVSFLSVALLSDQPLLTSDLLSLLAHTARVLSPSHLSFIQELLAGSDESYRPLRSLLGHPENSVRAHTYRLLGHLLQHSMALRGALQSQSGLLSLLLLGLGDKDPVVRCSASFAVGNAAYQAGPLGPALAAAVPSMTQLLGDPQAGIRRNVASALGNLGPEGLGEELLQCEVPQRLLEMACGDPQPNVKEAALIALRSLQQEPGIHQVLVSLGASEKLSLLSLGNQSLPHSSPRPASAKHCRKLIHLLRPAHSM
The assay is described as follows: Inhibition of STK36 (unknown origin) assessed as residual activity at 1000 nM by KINOMEscan analysis relative to control.

Assay [7] deals with STE20/SPS1-related proline-alanine-rich protein kinase (Homo sapiens) (UniProt Q9UEW8). The experiment in a line: Inhibition of STK39 (unknown origin) assessed as residual activity at 1000 nM by KINOMEscan analysis relative to control.

The structures appear in SMILES notation.

Sequence of Tyrosine-protein kinase FRK (Homo sapiens) (P42685 whole entry): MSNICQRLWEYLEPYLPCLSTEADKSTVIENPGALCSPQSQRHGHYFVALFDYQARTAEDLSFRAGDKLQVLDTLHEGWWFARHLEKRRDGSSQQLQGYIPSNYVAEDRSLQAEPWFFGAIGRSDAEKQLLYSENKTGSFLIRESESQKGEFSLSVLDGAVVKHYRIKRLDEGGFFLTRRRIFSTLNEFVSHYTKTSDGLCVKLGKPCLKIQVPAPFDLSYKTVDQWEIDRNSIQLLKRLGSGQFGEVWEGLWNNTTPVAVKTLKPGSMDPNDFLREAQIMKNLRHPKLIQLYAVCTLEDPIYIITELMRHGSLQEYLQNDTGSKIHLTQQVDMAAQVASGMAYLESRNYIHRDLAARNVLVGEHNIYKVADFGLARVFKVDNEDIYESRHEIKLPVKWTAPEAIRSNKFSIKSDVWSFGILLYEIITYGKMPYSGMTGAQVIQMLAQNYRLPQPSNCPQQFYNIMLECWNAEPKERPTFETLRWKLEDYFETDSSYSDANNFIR
Sequence of Serine/threonine-protein kinase 24 (Homo sapiens) (Q9Y6E0 whole entry, looked up): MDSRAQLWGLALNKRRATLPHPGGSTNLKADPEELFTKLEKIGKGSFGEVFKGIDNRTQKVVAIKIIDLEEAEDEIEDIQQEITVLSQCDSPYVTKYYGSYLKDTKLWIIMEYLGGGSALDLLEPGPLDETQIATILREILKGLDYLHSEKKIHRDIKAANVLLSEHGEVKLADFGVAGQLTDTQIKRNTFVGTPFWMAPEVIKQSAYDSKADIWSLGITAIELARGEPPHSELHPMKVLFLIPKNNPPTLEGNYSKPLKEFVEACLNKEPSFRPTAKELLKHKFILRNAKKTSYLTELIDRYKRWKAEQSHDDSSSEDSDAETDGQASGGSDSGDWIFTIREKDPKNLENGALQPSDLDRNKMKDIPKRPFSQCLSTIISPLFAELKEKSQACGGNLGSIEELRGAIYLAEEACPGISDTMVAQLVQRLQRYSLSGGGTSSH

As for `COc1cc2nc(C)nc(N[C@H](C)c3cccc(-c4cn[nH]c4)c3)c2cc1OC`, the Activity amounted to 97% in assay [1]; 69% in assay [2]; 76% in assay [3]; 61% in assay [4]; 75% in assay [5]; 100% in assay [6]. In addition, in assay [7], the Activity is 76%.
As for `COc1cc2ncnc(N[C@H](C)c3cccc4ccccc34)c2cc1OC`, the Activity turned out to be 97% in assay [1]; 67% in assay [2]; 94% in assay [3]; 100% in assay [4]; 82% in assay [5]; 100% in assay [6]. In assay [7], the Activity came to 100%.

The values are drawn from ChEMBL document CHEMBL5678818, “Discovery of potent SOS1 inhibitors that block RAS activation via disruption of the RAS-SOS1 interaction” (Proc Natl Acad Sci U S A, 2019).
